The text below walks through data of patent publication US7820707B2, “Heterocyclic derivatives” (N.V. Organon, priority 2006, dated 2010).

For the assay, the target named is T1, AMPA (GluR1) receptor (Homo sapiens, UniProt P42261).
T1 construct: expressed in transfected cells; host or cells: HEK cells (HEK.GluR1(i), kept under hygromycin selection)
Nature of the assay: Ca2+ influx assay (FLEXstation, Fluo-3) for positive modulation of the AMPA (GluR1) receptor in HEK.GluR1(i) cells. Format: cell-based. The settings on record: glutamate +/- test compound, Ca2+ response with fluo3-AM. From the text:
The compounds in this invention may be tested using a biological assay which measures Ca^2+ influx mediated through positive modulation of the AMPA (GluR1) receptor using standard techniques in the art such as, but not limited to, a FLEXstation (manufactured by Molecular Devices, Sunnyvale, Calif.). An optical readout using fluorescent probes is employed to measure ion channel dependent changes in intracellular ion concentration or membrane potential. The assay utilises the Ca^2+ conductance of functional homomeric GluR1(i) AMPA receptors to generate glutamate-dependent Ca^2+ responses. Influx of Ca^2+ through the ion channel is measured indirectly through an increase in intracellular Ca^2+ levels using the calcium sensitive dye such as, but not limited to, Fluo-3 (Molecular Devices, Sunnyvale, Calif.) in FLEXstation. A positive AMPA receptor modulator, in the presence of glutamate, will result in an influx of Ca^2+ through the ion channel which can be measured indirectly through an increase in intracellular Ca^2+ levels using the calcium sensitive dye Fluo-3 in FLEXstation.
HEK.GluR1(i) cells were maintained in DMEM supplemented with 10% fetaclone II, 1% non-essential amino acids and 150 μg/mL hygromycin, at 37° C./5% CO2. […]

T1 sequence (P42261 19-906 isoform P42261-2 limits assumed, species assumed): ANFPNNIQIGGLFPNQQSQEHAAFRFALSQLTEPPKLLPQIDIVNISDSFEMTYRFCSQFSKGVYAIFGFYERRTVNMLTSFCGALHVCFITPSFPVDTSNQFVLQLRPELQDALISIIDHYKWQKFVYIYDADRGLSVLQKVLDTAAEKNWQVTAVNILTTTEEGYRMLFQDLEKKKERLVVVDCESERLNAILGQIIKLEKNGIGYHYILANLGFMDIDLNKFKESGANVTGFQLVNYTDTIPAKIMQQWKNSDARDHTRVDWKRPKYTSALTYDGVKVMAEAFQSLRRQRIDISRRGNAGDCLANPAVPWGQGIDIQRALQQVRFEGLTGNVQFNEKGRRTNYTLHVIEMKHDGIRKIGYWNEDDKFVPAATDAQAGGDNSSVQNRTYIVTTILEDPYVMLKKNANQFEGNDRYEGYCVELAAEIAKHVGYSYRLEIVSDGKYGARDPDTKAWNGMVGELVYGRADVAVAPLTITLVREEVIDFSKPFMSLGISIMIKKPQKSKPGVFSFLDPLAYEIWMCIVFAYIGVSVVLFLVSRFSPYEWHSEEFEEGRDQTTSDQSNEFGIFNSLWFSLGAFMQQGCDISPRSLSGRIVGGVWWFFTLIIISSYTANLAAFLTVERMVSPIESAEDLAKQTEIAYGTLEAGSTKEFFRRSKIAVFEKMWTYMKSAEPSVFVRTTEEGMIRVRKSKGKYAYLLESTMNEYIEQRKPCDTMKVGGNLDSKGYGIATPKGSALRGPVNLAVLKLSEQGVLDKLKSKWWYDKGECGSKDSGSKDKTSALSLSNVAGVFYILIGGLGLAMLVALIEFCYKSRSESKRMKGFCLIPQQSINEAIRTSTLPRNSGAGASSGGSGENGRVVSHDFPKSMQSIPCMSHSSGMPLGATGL

By EC50 is commonly meant the concentration that produces a half-maximal response. Consider `CC(O)c1cn(CC(=O)Nc2sc3c(c2C(N)=O)CCCC3)nc1C(F)(F)F` (stereo not shown) [Example 67, 2-(2-(4-(1-hydroxyethyl)-3-(trifluoromethyl)-1H-pyrazol-1-yl)acetamido)-4,5,6,7-tetrahydrobenzo[b]thiophene-3-carboxamide], for which the response was half-maximal at 2200 nM (EC50).
